In patent US9409905B2, “Antibacterial compounds and methods for use” (PTC THERAPEUTICS, INC., priority 2011, dated 2016):
Converted amounts (≈) assume the structure as drawn.

Experiments:
[1] = system: Escherichia coli (E. coli) BAS849; experiment: Antibacterial activity, microbroth dilution MIC (Table 1); type: cell-based; settings: microbroth dilution, super sensitive Gram-negative E. coli BAS849, read-out: MIC, BAS849
In short: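 In a microbroth dilution test, the minimum inhibitory concentration was defined as the lowest compound level preventing growth seen by eye, and was given in μg/mL.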

[2] = system: Staphylococcus aureus (S. aureus) 29213; experiment: as above; type: cell-based; settings: microbroth dilution, Gram-positive S. aureus 29213, read-out: MIC, 29213
In short: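 Broth microdilution against S. aureus 29213, E. coli 25922 and hypersensitive E. coli BAS849. MIC in μg/mL is the lowest drug concentration preventing macroscopically visible growth under test conditions.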

E. coli 25922 = experiment: as above; type: cell-based, Escherichia coli; settings: Escherichia coli; microbroth dilution; control Gram-negative E. coli 25922 strain; read-out: MIC, 25922
In short: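 Potency is reported as minimum inhibitory concentration in μg/mL, determined by broth microdilution as the lowest level of compound that stops growth visible to the eye.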

E. coli LZ3111 = experiment: Antibacterial activity, MIC, quinolone resistant strain (Table 2); type: cell-based; settings: Escherichia coli, LZ3111, read-out: MIC LZ3111
In short: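 Strain carries mutations conferring high-level quinolone resistance; tested by microbroth dilution, MIC recorded in μg/mL as lowest concentration preventing visible growth.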

Compound	MIC [1] [µg/mL]	MIC [2] [µg/mL]	MIC (E. coli 25922) [µg/mL]	MIC (E. coli LZ3111) [µg/mL]
CCc1c(-c2ccc3c(c2)cc(CN(C)CCN(C)C)n3C)[nH]c(=O)c(C(=O)O)c1O [Cpd 303, 6-(2-(((2-(dimethylamino)ethyl)(methyl)amino)methyl)-1-methyl-1H-indol-5-yl)-5-ethyl-4-hydroxy-2-oxo-1,2-dihydropyridine-3-carboxylic acid]	< 1	12.5 to 150 (≈ 29.3 to 352 µM)	3.5 to 12.5 (≈ 8.21 to 29.3 µM)	12.5 to 150 (≈ 29.3 to 352 µM)
CCc1c(-c2ccc3c(c2)cc(C(C)(C)N2CCCC2)n3C)[nH]c(=O)c(C(=O)O)c1O [Cpd 307, 5-ethyl-4-hydroxy-6-(1-methyl-2-(2-(pyrrolidin-1-yl)propan-2-yl)-1H-indol-5-yl)-2-oxo-1,2-dihydropyridine-3-carboxylic acid]	< 1	1 to 3.5 (≈ 2.36 to 8.26 µM)	12.5 to 150 (≈ 29.5 to 354 µM)	12.5 to 150 (≈ 29.5 to 354 µM)
CCc1c(-c2ccc3c(c2)cc(C(C)(C)N(C)C)n3C)[nH]c(=O)c(C(=O)O)c1O [Cpd 308, 6-(2-(2-(dimethylamino)propan-2-yl)-1-methyl-1H-indol-5-yl)-5-ethyl-4-hydroxy-2-oxo-1,2-dihydropyridine-3-carboxylic acid]	< 1	1 to 3.5 (≈ 2.52 to 8.81 µM)	12.5 to 150 (≈ 31.4 to 377 µM)	12.5 to 150 (≈ 31.4 to 377 µM)
Cn1c(CN2CCCC2)cc2cc(-c3[nH]c(=O)c(C(=O)O)c(O)c3-c3ccc(F)cc3)ccc21 [Cpd 309, 5-(4-fluorophenyl)-4-hydroxy-6-(1-methyl-2-(pyrrolidin-1-ylmethyl)-1H-indol-5-yl)-2-oxo-1,2-dihydropyridine-3-carboxylic acid]	< 1	12.5 to 150 (≈ 27.1 to 325 µM)	3.5 to 12.5 (≈ 7.58 to 27.1 µM)	12.5 to 150 (≈ 27.1 to 325 µM)
CN(C)Cc1cc2cc(-c3[nH]c(=O)c(C(=O)O)c(O)c3-c3ccc(F)cc3)ccc2n1C [Cpd 310, 6-(2-((dimethylamino)methyl)-1-methyl-1H-indol-5-yl)-5-(4-fluorophenyl)-4-hydroxy-2-oxo-1,2-dihydropyridine-3-carboxylic acid]	< 1	12.5 to 150 (≈ 28.7 to 344 µM)	3.5 to 12.5 (≈ 8.04 to 28.7 µM)	12.5 to 150 (≈ 28.7 to 344 µM)
Cn1c(CNCC2CC2)cc2cc(-c3[nH]c(=O)c(C(=O)O)c(O)c3-c3ccc(F)cc3)ccc21 [Cpd 311, 6-(2-((cyclopropylmethylamino)methyl)-1-methyl-1H-indol-5-yl)-5-(4-fluorophenyl)-4-hydroxy-2-oxo-1,2-dihydropyridine-3-carboxylic acid]	< 1	12.5 to 150 (≈ 27.1 to 325 µM)	1 to 3.5 (≈ 2.17 to 7.58 µM)	12.5 to 150 (≈ 27.1 to 325 µM)
Cn1c(CN2CCC2)cc2cc(-c3[nH]c(=O)c(C(=O)O)c(O)c3-c3ccc(F)cc3)ccc21 [Cpd 312, 6-(2-(azetidin-1-ylmethyl)-1-methyl-1H-indol-5-yl)-5-(4-fluorophenyl)-4-hydroxy-2-oxo-1,2-dihydropyridine-3-carboxylic acid]	< 1	12.5 to 150 (≈ 27.9 to 335 µM)	3.5 to 12.5 (≈ 7.82 to 27.9 µM)	12.5 to 150 (≈ 27.9 to 335 µM)
CC(C)c1c(-c2ccc3c(c2)cc(CN2CCCC2)n3C)[nH]c(=O)c(C(=O)O)c1O [Cpd 319, 4-hydroxy-5-isopropyl-6-(1-methyl-2-(pyrrolidin-1-ylmethyl)-1H-indol-5-yl)-2-oxo-1,2-dihydropyridine-3-carboxylic acid]	< 1	3.5 to 12.5 (≈ 8.55 to 30.5 µM)	1 to 3.5 (≈ 2.44 to 8.55 µM)	12.5 to 150 (≈ 30.5 to 366 µM)
CC(C)c1c(-c2ccc3c(c2)cc(CN2CCC2)n3C)[nH]c(=O)c(C(=O)O)c1O [Cpd 320, 6-(2-(azetidin-1-ylmethyl)-1-methyl-1H-indol-5-yl)-4-hydroxy-5-isopropyl-2-oxo-1,2-dihydropyridine-3-carboxylic acid]	< 1	3.5 to 12.5 (≈ 8.85 to 31.6 µM)	1 to 3.5 (≈ 2.53 to 8.85 µM)	12.5 to 150 (≈ 31.6 to 379 µM)
CC(C)c1c(-c2ccc3c(c2)cc(CNCC2CC2)n3C)[nH]c(=O)c(C(=O)O)c1O [Cpd 321, 6-(2-((cyclopropylmethylamino)methyl)-1-methyl-1H-indol-5-yl)-4-hydroxy-5-isopropyl-2-oxo-1,2-dihydropyridine-3-carboxylic acid]	< 1	3.5 to 12.5 (≈ 8.55 to 30.5 µM)	1 to 3.5 (≈ 2.44 to 8.55 µM)	12.5 to 150 (≈ 30.5 to 366 µM)
